Results taken from US6949558B2, “Enhancement of taxane-based chemotherapy by a CDK1 antagonist” (Yale University, priority 2001, dated 2005).

Experiments:
MCF-7 xenografts = format: in vivo; settings: adriamycin 2 mg/kg or flavopiridol 15 mg/kg alone, i.p.
Text: Each complete cycle was separated by 2 d without treatment.
This test generates a P value testing the null hypothesis that the survival curves are identical in the overall populations.

[1] = system: survivin expression in MCF-7 cells; test: Survivin expression by Western blotting in MCF-7 cells; format: cell-based, human
Method: (§1) Cell Cultures, Proteins and Antibodies: Breast carcinoma MCF-7 and cervical carcinoma HeLa cells (American Type Culture Collection, Manassas, Va.) were maintained in culture according to the manufacturer's specifications. For treatment with genotoxic agents, HeLa or MCF-7 cells were incubated with vehicle (DMSO) or taxol (2 μM, Sigma Chemical Co., St. Louis, Mo.), adriamycin (100 nM, Sigma), cis-platin (3 μM, Sigma) or subjected to ultraviolet B (UVB) irradiation at 50 or 300 J/m^2. In some experiments, HeLa or MCF-7 treated with taxol, adriamycin or UVB as described above were incubated with inhibitors of transcription (actinomycin D, 1 μg/ml) or translation (cycloheximide, 2 mg/ml) before determination of protein expression by Western blotting. […] A replication-deficient adenovirus encoding wild type survivin (pAd-Survivin) or control encoding Green Fluorescence Protein (pAd-GFP) was generated using the pAd-Easy system as described previously (M. Mesri et al. (2001) J. Clin. Invest. 108: 981-90), and propagated in HEK293 cells with purification by CsCl banding. […] Antibodies to p34^cdc2 or bcl-2 were obtained from Pharmingen (San Diego, Calif.) and R&D, respectively. An antibody to β-actin was from Sigma and antibodies to MPM-2 mitotic phosphoproteins was from Upstate Biotechnology (Lake Placid, N.Y.).
(§2) In some experiments, total RNA was extracted from MCF-7 cells at various time intervals after adriamycin treatment, and hybridized with 32 P-labeled survivin cDNA as described previously. Radioactive bands were detected by autoradiography. […] In other experiments, samples were transferred to nylon membranes and analyzed by Western blotting with antibodies to p34^cdc2 (1 μg/ml), survivin (2 μg/ml), or survivinT34* (5 μg/ml).

[2] = system: p34^cdc2 kinase activity (MPM-2 epitope) in HeLa cells; test: MPM-2 mitotic phosphoepitope expression (p34^cdc2 kinase activity) in HeLa cells; format: cell-based, human; settings: HeLa
[3] = system: survivin expression in HeLa cells; test: Survivin expression by Western blotting in HeLa cells; format: cell-based, human
Method: as §1, §2
In other experiments, HeLa cells were treated with taxol (0.2 μM) for 16 h followed by the DNA damaging agent adriamycin (100 nM, Sigma) or the nucleoside analog 5-Fluorouracil (500 μM, Sigma) for 8-32 h at 37° C. […] In some experiments, HeLa cells were transfected by lipofectamine with a minimal survivin promoter construct upstream of a luciferase reporter gene (pLuc-cyc1.2), as described (F. Li et al. (1998) Nature 396: 580-584). Cells were treated with taxol (2 μM) or UVB (50 J/m2), and analyzed for changes in luciferase activity at increasing time intervals (12-36 h) in a luminometer. Luciferase values were normalized to β-galactosidase expression. […] The immune complexes were separated by SDS gel electrophoresis and analyzed with antibodies to survivin or a-survivinT34* by Western blotting.

[4] = system: Bcl-2 expression in HeLa cells; test: Bcl-2 expression by Western blotting in HeLa cells; format: cell-based, human; settings: flavopiridol, 48 h
Method: A. Concentration-dependence. […] B. Time-course. […] C. […] The experimental conditions are the same as in A, except that flavopiridol-treated HeLa cells were analyzed by Western blotting with an antibody to Bcl-2. D. Effect of genistein or TNF a on survivin expression. HeLa cells were treated with the tyrosine kinase inhibitor genistein (25 μM) or TNF a (5 ng/ml) for 48 h, harvested and analyzed for survivin expression by Western blotting. For all panels, relative molecular weight markers in kDa are shown on the left. E. Flavopiridol-induced apoptosis. […] The percentage of apoptotic cells with sub-G1DNA content is indicated. Insert, nuclear morphology of apoptosis (DNA fragmentation, chromatin condensation) in untreated or flavopiridol-treated HeLa cells, by DAPI staining.
as §2

[5] = system: survivin phosphorylation on Thr^34 in HeLa cells; test: Survivin phosphorylation on Thr^34 in HeLa cells (immunoprecipitation, Western blotting); format: cell-based, human; settings: increasing concentrations of flavopiridol, 24 h
Method: (§3) A. In vitro kinase assay. […] Radioactive bands were detected by autoradiography. […] The immune complexesb were analyzed by Western blotting (WB) with an antibody to Thr^34-phosphorylated survivin (a-survivinT34*, top panel) or with an antibody to survivin (a-survivin, lower panel) followed by chemiluminescence. For all panels, relative molecular weight markers in kDa are shown on the left.
as §2
Luciferase values were normalized to β-galactosidase expression.

[6] = system: survivin phosphorylation on Thr^34 in MCF-7 cells; test: Survivin phosphorylation on Thr^34 in MCF-7 cells; format: cell-based, human; settings: flavopiridol in the presence of 100 nM adriamycin
Method: as §2

p34^cdc2 = biological target: T1, p34^cdc2 (Homo sapiens, UniProt P06493); test: H1 phosphorylation by p34^cdc2 immunoprecipitated from treated HeLa cells; format: cell-based; settings: increasing concentrations of flavopiridol, 24 h
T1 construct: endogenous in cells; host or cells: HeLa cervical carcinoma cells (ATCC)
T1 sequence (P06493 whole entry): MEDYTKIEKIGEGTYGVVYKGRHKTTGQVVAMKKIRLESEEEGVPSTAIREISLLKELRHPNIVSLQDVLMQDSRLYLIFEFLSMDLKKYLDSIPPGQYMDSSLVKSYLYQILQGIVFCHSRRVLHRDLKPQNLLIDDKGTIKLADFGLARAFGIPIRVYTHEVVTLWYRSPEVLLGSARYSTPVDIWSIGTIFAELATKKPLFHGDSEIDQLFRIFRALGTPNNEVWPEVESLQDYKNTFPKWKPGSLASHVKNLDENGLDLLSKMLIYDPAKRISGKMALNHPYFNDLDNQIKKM
T1 sequence (P14635 whole entry partner): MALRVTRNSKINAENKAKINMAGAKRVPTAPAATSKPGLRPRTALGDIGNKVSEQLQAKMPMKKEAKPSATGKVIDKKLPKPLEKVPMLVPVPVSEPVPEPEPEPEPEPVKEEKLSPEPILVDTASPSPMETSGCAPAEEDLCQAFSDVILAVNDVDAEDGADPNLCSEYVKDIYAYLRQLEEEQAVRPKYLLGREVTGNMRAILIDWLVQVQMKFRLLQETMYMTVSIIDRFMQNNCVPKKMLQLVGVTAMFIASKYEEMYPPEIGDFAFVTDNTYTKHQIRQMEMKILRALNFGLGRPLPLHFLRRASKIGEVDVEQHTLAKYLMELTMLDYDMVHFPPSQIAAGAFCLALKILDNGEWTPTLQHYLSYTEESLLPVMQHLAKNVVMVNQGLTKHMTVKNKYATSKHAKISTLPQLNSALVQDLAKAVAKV
Method: as §3, §2

p34^cdc2-cyclin B1 = p34^cdc2-cyclin B1 (Homo sapiens, UniProt P06493); test: In vitro kinase assay with baculovirus-expressed p34^cdc2-cyclin B1; format: biochemical; settings: 100 nM flavopiridol
Sequence of p34^cdc2-cyclin B1 (P06493 whole entry): as the sequence (P06493 whole entry) above
Sequence of p34^cdc2-cyclin B1 (P14635 whole entry partner): as the sequence (P14635 whole entry partner) above
Method: as §3, §2

HeLa cells = test: Apoptosis by DNA content analysis and flow cytometry in HeLa cells; format: cell-based, human; settings: increasing flavopiridol concentrations, 48 h

CN1CC[C@H](c2c(O)cc(O)c3c(=O)cc(-c4ccccc4Cl)oc23)[C@H](O)C1 [flavopiridol]
kinetics of tumor growth vs vehicle (MCF-7 xenografts): did not affect the kinetics of tumor growth | survivin levels ([1]; anti-cancer agents (adriamycin, UVB) 18 h followed by flavopiridol 72 h): suppressed survivin levels to background values of untreated cultures | survivin levels ([1]; flavopiridol alone 100 nM for 72 h): did not significantly affect survivin levels | MPM-2 mitotic phosphoepitope expression ([2]; taxol 0.2 μM 16 h then Cdk inhibitor for 16 h (Purvalanol A 10 μM, alsterpaullone 20 μM, flavopiridol 250 nM, olomoucine 400 μM)): partially inhibited MPM-2 expression | MPM-2 mitotic phosphoepitope expression ([2]; taxol 0.2 μM 16 h then Cdk inhibitor for 32 h): suppressed mitotic phosphoprotein expression | survivin expression ([3]; 1 and 25 nM flavopiridol and between 12 and 72 hours): modest increase in survivin expression | survivin expression ([3]; flavopiridol 100 nM, 84-96 h treatment): Nearly complete loss of survivin expression | survivin expression ([3]; higher flavopiridol concentrations, 24 h): complete loss of survivin expression | survivin expression, concentration dependence ([3]; increasing flavopiridol concentrations, 48 h): concentration-dependent decrease in survivin expression | Bcl-2 expression [4]: did not affect expression of antiapoptotic Bcl-2 | survivin phosphorylation on Thr^34 [5]: concentration-dependent inhibition of phosphorylation on Thr^34 | survivin phosphorylation on Thr^34 [6]: suppressed survivin phosphorylation on Thr^34 | H1 phosphorylation by immunoprecipitated p34^cdc2 (p34^cdc2): dose-dependent inhibition of H1 phosphorylation | phosphorylation of H1 and wild type survivin by p34^cdc2-cyclin B1 (p34^cdc2-cyclin B1): suppressed phosphorylation of H1 and wild type survivin | population with hypodiploid (apoptotic) DNA content (HeLa cells): concentration-dependent increase in the population with hypodiploid (apoptotic) DNA content
